Experiment [1] deals with T1, ERCC1-XPF (Homo sapiens, UniProt P07992+Q92889).
T1 construct: made in house; host or cells: Sf9 insect cells, baculovirus (obtained from Aziz Sancar)
T1 sequence (Q92889 1-916): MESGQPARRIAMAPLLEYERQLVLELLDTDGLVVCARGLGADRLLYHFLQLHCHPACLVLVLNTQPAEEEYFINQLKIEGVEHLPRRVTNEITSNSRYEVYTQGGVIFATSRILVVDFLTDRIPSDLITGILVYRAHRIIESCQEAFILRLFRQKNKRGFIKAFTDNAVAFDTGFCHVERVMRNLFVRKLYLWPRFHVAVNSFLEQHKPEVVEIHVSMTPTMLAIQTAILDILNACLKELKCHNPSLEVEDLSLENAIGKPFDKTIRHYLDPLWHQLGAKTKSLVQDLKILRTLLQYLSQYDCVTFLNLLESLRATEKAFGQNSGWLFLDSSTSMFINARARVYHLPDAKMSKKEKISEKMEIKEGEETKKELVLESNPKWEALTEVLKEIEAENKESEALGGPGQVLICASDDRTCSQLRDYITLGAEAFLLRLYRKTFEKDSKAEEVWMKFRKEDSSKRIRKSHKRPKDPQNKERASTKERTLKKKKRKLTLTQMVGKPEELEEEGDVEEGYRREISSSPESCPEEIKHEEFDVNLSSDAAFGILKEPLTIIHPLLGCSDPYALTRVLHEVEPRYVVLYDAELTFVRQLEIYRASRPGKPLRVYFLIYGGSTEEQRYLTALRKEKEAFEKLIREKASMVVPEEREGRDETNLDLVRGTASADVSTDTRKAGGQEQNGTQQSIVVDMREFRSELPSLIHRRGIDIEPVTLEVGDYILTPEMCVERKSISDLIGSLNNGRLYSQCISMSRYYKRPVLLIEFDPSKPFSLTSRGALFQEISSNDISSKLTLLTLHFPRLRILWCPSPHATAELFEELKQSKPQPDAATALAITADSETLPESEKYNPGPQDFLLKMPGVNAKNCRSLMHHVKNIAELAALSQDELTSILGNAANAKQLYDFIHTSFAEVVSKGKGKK
T1 sequence (P07992 1-297): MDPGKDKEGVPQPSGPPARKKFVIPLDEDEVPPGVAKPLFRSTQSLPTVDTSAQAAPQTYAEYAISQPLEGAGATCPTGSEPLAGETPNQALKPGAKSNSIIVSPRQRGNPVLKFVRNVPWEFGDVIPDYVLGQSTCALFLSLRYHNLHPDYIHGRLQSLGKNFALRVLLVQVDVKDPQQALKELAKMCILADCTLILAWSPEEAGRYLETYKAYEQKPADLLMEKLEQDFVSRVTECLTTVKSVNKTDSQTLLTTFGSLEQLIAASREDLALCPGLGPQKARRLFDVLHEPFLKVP
In words: HTS fluorescence assay of ERCC1-XPF endonuclease activity. The settings on record: IC50s calculated by CompuSyn, SD from 3 plots, read-out: ERCC1-XPF IC50. In kind it is biochemical. The source says:
To screen for ERCC1-XPF inhibition, an existing in vitro assay was optimized to a 96-well plate format to allow for screening of compound libraries (NCI-DTP diversity set). These compounds and subsequent vialed compounds were from the Drug Synthesis and Chemistry Branch, Developmental Therapeutics Program, Division of Cancer Treatment and Diagnosis at the National Cancer Institute. We used purified ERCC1-XPF (Supplementary Figure S1) and describe the purification procedure in Supplementary Information. The initial cuvette-based assay was optimized for DNA, MgCl2 concentrations as well as the incubation time to be used in the fluorescence assay in a 96 well plate format (Supplementary Figure S2). The assay consists of a 10 nM DNA (Q+Fl substrate annealed, described below) and 7.5 nM ERCC1-XPF protein in buffer containing 50 mM Tris-HCl pH8.0, 2 mM MgCl2, 0.1 mM BSA, and 0.5 mM β-mercaptoethanol. For preliminary screening, 150 μL of DNA was added to each well and the fluorescence signal was measured at 525 nm following excitation at 485 nm. Compounds or controls were then added to individual wells for a total of 80 compounds on each plate and the fluorescent signal was re-measured. We initially ran the screen using 50 μM compound and then repeated using 10 μM compound. 16 controls were used per plate, which consisted of buffer alone, DNA alone, ERCC1-XPF alone, 10 nM fluorescein ssDNA (positive signal), and 10 nM Q-Fl DNA with 7.5 nM ERCC1-XPF (positive signal). 7.5 nM ERCC1-XPF was added to each well containing the compounds and DNA and incubated for 30 minutes at 37°C after which the fluorescent signal was measured again.
The synthetic DNA substrate mimics a native forked ssDNA-dsDNA substrate of ERCC1-XPF (Figure 1A). This forked DNA substrate has a dsDNA region (14 bases) and a region containing two ssDNA flaps (12 bases each). One 26-mer DNA oligonucleotide contains a site-specific fluorescein modification at the indicated position (Fl Oligo: 5' - GCCAGCGCTCGGAT(AminoC6dT)(FLSN) TTTTTTTTTTT). The semi-complementary strand was synthesized containing a DABCYL quencher (Q) molecule at the depicted position (Q Oligo: 5' - TTTTTTTTTTT (AminoC6dT)(Dabcyl) ATCCGAGCGCTGGC; Figure 1A). The fluorescein (*) molecule has an excitation peak centered at 485 nm and an emission peak centered at 525 nm. The quencher (Q) molecule is able to quench the fluorescence signal of the fluorescein when it is in close proximity. The design of the semi-duplex DNA substrate is such that the fluorescein and DABCYL quencher are directly opposite one another at the double-stranded and single-stranded DNA junction (Figure 1A). […] Upon cleavage by ERCC1-XPF, (~4-5 bases from the dsDNA-ssDNA) the fluorescein label on the cleaved DNA is released into solution and results in a significant increase in fluorescence as the quencher is no longer in close proximity. The DNA substrate is also incorporated with a restriction enzyme site (HhaI) within the duplex DNA that results in a cleavage pattern similar to ERCC1-XPF. This serves as a positive control and allows assessment of ERCC1-XPF cleavage product. This DNA substrate is used in the solution based fluorescence screening assay to screen for inhibitors of ERCC1-XPF endonuclease activity. In the 96 well platform, the Z factor was calculated to be ~0.87 indicating a highly robust assay and highly suitable for a HTS. A Molecular Devices Spectramax M5 plate reader was used for fluorescence detection. The DNA substrate was the same for gel-based assays besides the fluorescent/quencher modifications and 5'-labeling using γ-ATP^32. For the secondary screen, the reaction was setup in a tube with 10 nM DNA, 7.5 nM XPF-ERCC1, 20 U/ml of HhaI, or 7.5 nM XPG (Supplementary Figure S3A) in nuclease reaction buffer with compound titration and incubated at 37°C for 30 minutes. The reaction was stopped by chelating the metal in the buffer and read in the Spectramax M5 plate reader.

In experiment [2] the test system is H460 cells. As to the kind of experiment: Cisplatin intrastrand adduct repair by ELISA. In kind it is cell-based. The settings on record: 72 hours (last time point), compound 15 μM 2 h then cisplatin at IC90 2 h; relative to 0 hour.
Experiment [3] relates to H460 xenografts. The settings on record: 16168 20 mg/kg i.p. daily or cisplatin 3 mg/kg i.p. twice a week, 10 days.
Experiment [4] deals with H460 cells. As to the kind of experiment: Cisplatin interstrand crosslink repair by comet assay. To be noted: 72 hours, cisplatin at IC90 alone. Type of experiment: cell-based.
Method: (B) After treatment, comet assay was performed as described at different time intervals (0, 24, 48 and 72 h). The percentage of interstrand crosslinks remaining was calculated using olive tail moment. Results are represented as mean ± SEM of three independent experiments.
The data is expressed as the percentage of crosslinks remaining at the time points assessed.
Cells were treated with compound (Hit control (9:1 DMSO-glycerol). After incubation at 37°C 1 or Hit 2) and cisplatin or just cisplatin alone in serum for 30 minutes, 2 μL of the pre-incubate was diluted into a free media. […] Cells were further treated with 100 μM
Cells were then trypsinized, pelleted and resuspended in 1% low melting point agarose.
In experiment [5] the test system is H460 cells. As to the kind of experiment: Colony survival assay in H460 cells. In kind it is cell-based. To be noted: SAR, Supplementary Figure S6; cell line not stated. On the procedure:
We used H460, NSCLC cells, to first assess the impact on colony survival by knocking down ERCC1-XPF in these cells. […] Next, to assess if colony survival is affected we titrated cisplatin in these cells using a fixed concentration of Hit 1(50 μM) or Hit 2 (25 and 50 μM). […] Next, we assessed cisplatin potentiation by treating cells at a fixed cisplatin concentration (cisplatin IC50 in H460 cells) with Hit 1 or 2 titration (Figure 4C, filled symbols). H460 cells were treated with compound for a total of 4 hours while cisplatin was added to the media after 2 hours of compound pre-treatment. […] We also titrated Hit 1 or Hit 2 alone in these cells and treated for 4 h. […] We also assessed the effects of Hit 2 in another NSCLC cell line (H1299), which was either ERCC1 wildtype (WT) or knockout (KO) (Figure 4E).
Colony survival assay in a total reaction volume of 2.4 mL in a six-well plate Cells were split and seeded at a density of 300-400 format. Cells were transfected for 48 hours after which cells in a 60 mm plate and incubated overnight. The next complete media was added for 24 hours. Cells were day, the cells were treated with a fixed concentration of the seeded for clones and clones were selected using standard compound (Hit 1 or Hit 2) with cisplatin titration. After methods. ERCC1 KO clones were tested for ERCC1 treatment, fresh complete medium with antibiotics was and XPF expression by Western Blot using the ERCC1 added and the cells were then allowed to form colonies. In antibodies, 8F1, FL-297, and D-10 and the XPF antibody another method, the cells were seeded onto 60mm plates 3F2/3 (Santa Cruz).
Validation of genome editing was performed alone or titrated with a fixed concentration of cisplatin by PCR amplification with Taq polymerase (NEB) of (IC50 for the cell line used). Post treatment, the cells were exon 2 within the genomic DNA using the forward allowed to form colonies. Colonies were fixed with 95% primer: 5’ […]
methanol and stained with 0.2 % crystal violet. Colonies 3’ and the reverse primer: 5’ […]
with ≥50 cells were counted using a light microscope. Cell […] 3’. PCR product was cloned […]
survival was expressed as the ratio of average number of into a linearized pCR4-TOPO vector and transformed colonies in drug treated cells versus control cells x 100. into OneShot TOP10 E. coli using the TOPO-TA Cloning The experiment was done in triplicate for each drug Kit for Sequencing (Thermofisher). Bacterial colonies concentration. We have previously published the methods were selected with ampicillin and plasmid was extracted for ERCC1 and XPF knockdowns, which were used as using standard procedures. Plasmid was sequenced by controls. Briefly, cells were seeded onto six-well plates GeneWiz using an M13R primer. Potential sites of off-target editing in coding sequences were identified during
(density 2.5 × 10^5 cells /well) in antibiotic free media. guide RNA design with the Optimized CRISPR Design Two transfections were done at 24 h interval in each cell Tool. Primers were designed to amplify the exons line to knockdown ERCC1-XPF together according to containing the potential off-target sites and PCR product the manufacturer ’s (Dharmacon’s smartpools) protocol. was sequenced by GeneWiz. A list of specific off-target Addition of lipid reagent (Dharmafect 2, Dharmacon) sites and primers used to assess these off-target effects are […]

Take `C[C@@H](O)CN(CCN(C[C@@H](C)O)C[C@@H](C)O)C[C@@H](C)O.O=[N+]([O-])O.[Cu]` [NSC103019]: the IC50 in experiment [1] was 530 ± 128 nM.
For the compound `N.N.[Cl][Pt][Cl]` [Cisplatin, cis-diammine-dichloroplatinum (II)], the intrastrand adducts remaining in experiment [2] is listed as ~ 15%. The “tumor growth, single agent” value in experiment [3] is reported as “initial tumor response that delayed tumor growth”. The ICLs remaining in experiment [4] was 1-5%.
For the compound `Oc1cc(O)c2c(c1)O[C@H](c1ccc(O)c(O)c1)[C@@H](O)[C@@H]2c1c(O)cc(O)c2c1O[C@H](c1ccc(O)c(O)c1)[C@@H](O)C2` [Procyanidin B3], in experiment [5], the “potentiation of cisplatin by structural analogues in cell culture / colony survival” value is “activity for only one of the structural analogues”.
Consider `NC(=O)C[S+]([O-])CC(N)C(=O)O` (stereo not shown) [NSC14161], for which the IC50 in experiment [1] was 790 ± 350 nM.
Turning to `O=S(=O)(NCCO)c1cc[c]([Sb](=[O])([OH])[OH])cc1` [NSC13776], the IC50 in experiment [1] is 1150 ± 960 nM.

The record behind these values is PMC5342726, “Identification of small molecule inhibitors of ERCC1-XPF that inhibit DNA repair and potentiate cisplatin efficacy in cancer cells” (Oncotarget, 2016).
